What was measured:
Type in all cases: cell-based, human
Settings in all cases: HT29 cell line (colon tumor), compound 10 μM, 24 hours, vs control
[1] = tested on: Gene 3; assay: Gene modulating activity in colon cancer cells (RT-PCR RNA expression), Gene 3
Protocol: (§1) In such assays, primary cells, or tissue samples, are maintained in growth medium and are treated with compounds at a single concentration (10 μM for the data of Table 1) or at a range of concentrations (such as from 1 μM up to 100 μM). At specific times after treatment at the given concentration of test compound, cellular RNAs are isolated from the treated cells, primary cells or tumors, which RNAs are indicative of expression of selected genes, including, but not limited to, the genes used herein. The cellular RNA is then divided and subjected to analysis that detects the presence and/or quantity of specific RNA transcripts, which transcripts may then be amplified for detection purposes using standard methodologies, such as, for example, reverse transcriptase polymerase chain reaction (RT-PCR), etc. The presence or absence, or levels, of specific RNA transcripts are determined from these measurements and a metric derived for the type and degree of response of the sample to the treated compound compared to control samples. One such procedure is shown in example 8 where test compound may or may not be present.
(§2) HT29 cells are grown to a density of 10^5 cells/cm^2 in Leibovitz's L-15 medium supplemented with 2 mM L-glutamine (90%) and 10% fetal bovine serum. The cells are collected after treatment with 0.25% trypsin, 0.02% EDTA at 37° C. for 2 to 5 minutes. The trypsinized cells are then diluted with 30 ml growth medium and plated at a density of 50,000 cells per well in a 96 well plate (200 μl/well). The following day, cells are treated with either compound buffer alone, or compound buffer containing a chemical agent to be tested, for 24 hours. The media is then removed, the cells lysed and the RNA recovered using the RNAeasy reagents and protocol obtained from Qiagen. […] Reverse transcription is then carried out at 48° C. for 30 minutes. The sample is then applied to a Perlin Elmer 7700 sequence detector and heat denatured for 10 minutes at 95° C. Amplification is performed through 40 cycles using 15 seconds annealing at 60° C. followed by a 60 second extension at 72° C. and 30 second denaturation at 95° C. Data files are then captured and the data analyzed with the appropriate baseline windows and thresholds.
(§3) For testing of the effects of a compound of Table 1, each compound was present at a concentration of 10 μM in the culture medium.
(§4) The quantitative difference between the target and reference genes is then calculated and a relative expression value determined for all of the samples used. This procedure is then repeated for each of the target genes in a given signature, or characteristic, set and the relative expression ratios for each pair of genes is determined (i.e., a ratio of expression is determined for each target gene versus each of the other genes for which expression is measured, where each gene's absolute expression is determined relative to the reference gene for each compound, or chemical agent, to be screened). The samples are then scored and ranked according to the degree of alteration of the expression profile in the treated samples relative to the control. The overall expression of the set of genes relative to the controls, as modulated by one chemical agent relative to another, is also readily ascertained. Chemical agents having the most effect on a given gene, or set of genes, are considered the most therapeutic or anti-neoplastic, depending on the tissues being studied. In each case, the agent was present in the cell culture at a concentration of ten micromolar.
(§5) The sets of genes, or signature sets, useful in the methods of the invention disclosed herein represent a set of genes expressed at a higher level in a cancer cell line derived from colon but not expressed at a higher level in normal colon (for example, genes 1, 2, 4-10 for the data of Table 1) or whose expression is higher in normal cells (for example, genes 3 and 11 for the data of Table 1) relative to the cancer cells. […]

[2] = tested on: Gene 11; assay: Gene modulating activity in colon cancer cells (RT-PCR RNA expression), Gene 11
Protocol: as §1, §2, §3
as §4, with “In each case, the agent was present in the cell culture at a concentration of ten micromolar.” left out

[3] = tested on: Gene 10; assay: Gene modulating activity in colon cancer cells (RT-PCR RNA expression), Gene 10
Protocol: as §1, §2, §3, §4, §5

[4] = tested on: Gene 1; assay: Gene modulating activity in colon cancer cells (RT-PCR RNA expression), Gene 1
Protocol: as §1, §2, §3, §4, §5

[5] = tested on: Gene 9; assay: Gene modulating activity in colon cancer cells (RT-PCR RNA expression), Gene 9
Protocol: as §1, §2, §3, §4, §5

[6] = tested on: Gene 8; assay: Gene modulating activity in colon cancer cells (RT-PCR RNA expression), Gene 8
Protocol: as §1, §2, §3, §4, §5

[7] = tested on: Gene 4; assay: Gene modulating activity in colon cancer cells (RT-PCR RNA expression), Gene 4
Protocol: as §1, §2, §3, §4, §5

[8] = tested on: Gene 5; assay: Gene modulating activity in colon cancer cells (RT-PCR RNA expression), Gene 5
Protocol: as §1, §2, §3, §4, §5

[9] = tested on: Gene 6; assay: Gene modulating activity in colon cancer cells (RT-PCR RNA expression), Gene 6
Protocol: as §1, §2, §3, §4, §5

[10] = tested on: Gene 7; assay: Gene modulating activity in colon cancer cells (RT-PCR RNA expression), Gene 7
Protocol: as §1, §2, §3, §4, §5

[11] = tested on: Gene 2; assay: Gene modulating activity in colon cancer cells (RT-PCR RNA expression), Gene 2
Protocol: as §1
For example, Gene 2 was a gene that encodes a kallikrein. Tissue or glandular kallikreins are members of a large and highly conserved family of serine proteases that are central to many physiological processes. They are secreted protein-cleaving enzymes that process for example kininogen (local blood flow, sodium balance, inflammation, cell proliferation), growth factors (EGF, NGF, vasoactive peptide), or other substrates. The prostate antigens hK2 and PSA are members of this family. Diseases in which kallikreins have been implicated include acute pancreatitis, inflammatory arthritis and inflammatory bowel disease, sepsis, enterocolitis, arterial and salt-sensitive hypertension, blood coagulation disorders, scorpion and snake evenomation, infections and cancer. Thus, the chemical agents disclosed herein find use in the treatment and/or prevention of any of these diseases.
as §2, §3
The quantitative difference between the target and reference genes is then calculated and a relative expression value determined for all of the samples used. This procedure is then repeated for each of the target genes in a given signature, or characteristic, set and the relative expression ratios for each pair of genes is determined (i.e., a ratio of expression is determined for each target gene versus each of the other genes for which expression is measured, where each gene's absolute expression is determined relative to the reference gene for each compound, or chemical agent, to be screened). […]

Row | Compound | Gene 3 Folds of up (+) or down (−) regulatlon [1] | Gene 11 Folds of up (+) or down (−) regulatlon [2] | Gene 10 Folds of up (+) or down (−) regulatlon [3] | Gene 1 Folds of up (+) or down (−) regulatlon [4] | Gene 9 Folds of up (+) or down (−) regulatlon [5] | Gene 8 Folds of up (+) or down (−) regulatlon [6] | Gene 4 Folds of up (+) or down (−) regulatlon [7] | Gene 5 Folds of up (+) or down (−) regulatlon [8] | Gene 6 Folds of up (+) or down (−) regulatlon [9] | Gene 7 Folds of up (+) or down (−) regulatlon [10] | Gene 2 Folds of up (+) or down (−) regulatlon [11]
1 | CC(C)CN(C(=O)c1ccccc1)C1CCCC1Sc1ccccc1 (stereo not drawn) [AV-96] | 3.2 Folds | 3.7 Folds | 1.9 Folds | 3.5 Folds | 2.5 Folds | 2.8 Folds | 2.8 Folds | 2.8 Folds | −4.9 Folds | 5.3 Folds | 2.8 Folds
2 | CCCN(C(=O)c1ccccc1)C1CCCC1Sc1ccccc1 (stereo not drawn) [AV-221] | −3.5 Folds | – | −6.5 Folds | 64.0 Folds | 1.2 Folds | 1.6 Folds | 1.4 Folds | 1.5 Folds | −1.1 Folds | 90.5 Folds | 1.4 Folds
3 | CN(C(=O)C1CCC1)C1CCCCC1Sc1ccccc1 (stereo not drawn) [AV-283] | −4.6 Folds | −34.3 Folds | −3.0 Folds | −2.1 Folds | −3.7 Folds | −1.7 Folds | −1.7 Folds | −1.5 Folds | −3.5 Folds | −3.7 Folds | −1.7 Folds
4 | CCCN(C(=O)Nc1ccc(-c2ccccc2)cc1)C1COCC1SC (stereo not drawn) [AV-916] | −8.0 Folds | −3.7 Folds | −8.6 Folds | −2.1 Folds | −6.5 Folds | −3.0 Folds | −1.3 Folds | −1.2 Folds | 1.0 Folds | −1.2 Folds | −1.1 Folds
5 | CSC1CCCC1NC(=O)Nc1cccc(Cl)c1 (stereo not drawn) [AV-988] | −11.3 Folds | – | −4.6 Folds | 2.6 Folds | 1.3 Folds | 1.7 Folds | 1.9 Folds | 1.9 Folds | 2.0 Folds | 1.2 Folds | 2.3 Folds
6 | O=C(Nc1ccc(-c2ccccc2)cc1)N(Cc1ccccc1)C1CCCC1Sc1ccccc1 (stereo not drawn) [AV-1030] | −1.1 Folds | −4.6 Folds | −2.5 Folds | 2.1 Folds | −2.6 Folds | −2.6 Folds | 1.1 Folds | 2.5 Folds | 1.4 Folds | −1.1 Folds | 3.7 Folds
7 | COCCN(C(=O)COc1ccccc1)C1CCCC1Sc1ccccc1 (stereo not drawn) [AV-1241] | 29.9 Folds | 27.9 Folds | 13.0 Folds | 1.9 Folds | 9.2 Folds | 2.1 Folds | 2.0 Folds | 1.2 Folds | 2.8 Folds | 26.0 Folds | 1.7 Folds

Reference: US6548539B1, “Agents for regulation of colon cancer gene expression” (Avalon Pharmaceuticals, priority 2001, dated 2003)
